Results taken from patent EP4458353A1, “ANTICARIOGENIC SYNERGETIC COMPOSITION FOR ORAL CARE” (SkyLab AG, priority 2023, dated 2024).
Where two headings read alike, the source gives them in different places.

Legend:
Assay type in all cases: cell-based
Streptococcus sobrinus [1] = experiment: Minimum biofilm inhibitory concentration (MBIC), crystal violet staining; details: S. sobrinus; for MBIC in indicvdual replicates Replicate 1 / MBIC in indicvdual replicates Replicate 2 / MBIC in indicvdual replicates Replicate 3 / MBIC in indicvdual replicates Replicate 4 / MBIC in indicvdual replicates Replicate 5: 24 h incubation; for MBIC Median value: median of 5 replicates
Method: (§1) Group of examples No 4 - 6. Anti-biofilm activity of the substance or of the composition of substances was assessed from minimum biofilm inhibitory concentration (MBIC) and from the rate of biofilm formation on hydroxyapatite disks.
(§2) Reference strains Streptococcus mutans and S. Sobrinus were used as the bacterial models.
(§3) Example No 4. MBIC as the measure of the substance effect on the bacterial biofilm is equal to minimum concentration inhibiting the biofilm formation or disruption of already formed biofilm during 24 hour incubation.
(§4) MBIC of individual components of the composition, specifically, naringenin, guava leaf CO2 extract, and enzymes lysozyme and labiase can be determined according to the procedure: • 1) All stages of nutritive medium preparation, preparation and incubation of bacterial cultures in 96-well microtiter plates with the test composition of the substances added into nutritive medium were as described in Example 1. • 2) All controls for the culture growth, for purity of nutritive medium and for solvents were as described in Example 1. • 3) Incubate the plates at 37 °C for 24 ± 4 h without the use the orbital shaker. • 4) Stain the bacterial biofilm accumulated on bottom of the plate wells with crystal violet. For this purpose remove the planktonic culture from the plate wells after 24 h incubation and wash with two portions of phosphate-buffered saline (PBS, pH 7.4) to remove remaining planktonic culture. Then dry the plate for 12-15 hours. Add 100 µL of 0.5% crystal violet solution (Sigma-Aldrich, USA), dissolved in 96% ethanol followed by incubation for 20 minutes. After removal of crystal violet solution from the wells wash the plate with 3-4 portions of PBS. After drying add […] of 96% ethanol into the wells to elute the crystal violet, which has bound to the biofilm. • 5) Shake the plate on the orbital shaker for 2 minutes at 37 °C and then measure optical density (OD) at the wavelength of 550nm using multimodal microplate reader against the blank (the well, where the sterile medium LB was incubated and then exposed to all staining manipulations). Since the serial dilution method with 2-fold dilution steps is used for MBIC determination, the difference between the adjacent dilution is considered as non-significant, and MBIC is defined as the median value calculated for 5 independent biological replicates of the experiment. • 6) The following concentrations were tested: naringenin and guava leaf extract at concentrations 1.6, 0.8, 0.4, 0.2, 0.1, 0.05 mg/mL; lysozyme and labiase at concentrations 4.0, 2.0, 1.0, 0.5, 0.25, 0.125 mg/mL. Well-known antibacterial components were used as controls: chlorohexidine bigluconate at concentrations 64, 32, 16, 8, 4 µg/mL; zinc gluconate at concetrations 5.0, 2.5, 1.25, 0.6, 0.3, 0.15 mg/mL.

Streptococcus mutans [2] = experiment: as above; details: S. mutans; for MBIC in indicvdual replicates Replicate 1 / MBIC in indicvdual replicates Replicate 2 / MBIC in indicvdual replicates Replicate 3 / MBIC in indicvdual replicates Replicate 4 / MBIC in indicvdual replicates Replicate 5: 24 h incubation; for MBIC Median value: median of 5 replicates
Method: as §1, §2, §3, §4

Streptococcus sobrinus [3] = experiment: Minimum inhibitory concentration (MIC), serial two-fold dilution with resazurin test; details: for MIC: Streptococcus sobrinus
Streptococcus mutans [4] = experiment: as above; details: for MIC: Streptococcus mutans
[5] = 24 h, read-out: MIC value in individual replicate Replicate 1
[6] = 24 h, read-out: MIC value in individual replicate Replicate 2
[7] = 24 h, read-out: MIC value in individual replicate Replicate 3
[8] = 24 h, read-out: MIC value in individual replicate Replicate 4
[9] = 24 h, read-out: MIC value in individual replicate Replicate 5

| Molecule | MBIC in indicvdual replicates Replicate 1 (Streptococcus sobrinus [1]) [µg/mL] | MBIC in indicvdual replicates Replicate 2 (Streptococcus sobrinus [1]) [µg/mL] | MBIC in indicvdual replicates Replicate 3 (Streptococcus sobrinus [1]) [µg/mL] | MBIC in indicvdual replicates Replicate 4 (Streptococcus sobrinus [1]) [µg/mL] | MBIC in indicvdual replicates Replicate 5 (Streptococcus sobrinus [1]) [µg/mL] | MBIC Median value (Streptococcus sobrinus [1]) [µg/mL] | MBIC in indicvdual replicates Replicate 1 (Streptococcus mutans [2]) [µg/mL] | MBIC in indicvdual replicates Replicate 2 (Streptococcus mutans [2]) [µg/mL] | MBIC in indicvdual replicates Replicate 3 (Streptococcus mutans [2]) [µg/mL] | MBIC in indicvdual replicates Replicate 4 (Streptococcus mutans [2]) [µg/mL] | MBIC in indicvdual replicates Replicate 5 (Streptococcus mutans [2]) [µg/mL] | MBIC Median value (Streptococcus mutans [2]) [µg/mL] | other results |
| --- | --- | --- | --- | --- | --- | --- | --- | --- | --- | --- | --- | --- | --- |
| N=C(NCCCCCCNC(=N)NC(=N)Nc1ccc(Cl)cc1)NC(=N)Nc1ccc(Cl)cc1 [Chlorohexidine bigluconate, chlorohexidine bigluconate] | 4.0 | 4.0 | 8.0 | 4.0 | 4.0 | 4.0 | 8.0 | 8.0 | 8.0 | 8.0 | 4.0 | 8.0 | MIC (Streptococcus sobrinus [3]; [5]): 4 µg/mL; MIC (Streptococcus sobrinus [3]; [6]): 4 µg/mL; MIC (Streptococcus sobrinus [3]; [7]): 4 µg/mL; MIC (Streptococcus sobrinus [3]; [8]): 8 µg/mL; MIC (Streptococcus sobrinus [3]; [9]): 4 µg/mL; MIC (Streptococcus sobrinus [3]; read-out: MIC Median value): 4 µg/mL; MIC (Streptococcus mutans [4]; [5]): 8 µg/mL; MIC (Streptococcus mutans [4]; [6]): 8 µg/mL; MIC (Streptococcus mutans [4]; [7]): 8 µg/mL; MIC (Streptococcus mutans [4]; [8]): 8 µg/mL; MIC (Streptococcus mutans [4]; [9]): 8 µg/mL; MIC (Streptococcus mutans [4]; read-out: MIC Median value): 8 µg/mL |
| zinc gluconate | 5000 | 5000 | 2500 | 2500 | 2500 | 2500 | 1250 | 1250 | 600 | 600 | 600 | 600 | MIC value in individual replicate Replicate 1 (Streptococcus sobrinus [3]; S. sobrinus, 24 h at 37 °C): 5000 µg/mL; MIC value in individual replicate Replicate 2 (Streptococcus sobrinus [3]; S. sobrinus, 24 h at 37 °C): 5000 µg/mL; MIC value in individual replicate Replicate 3 (Streptococcus sobrinus [3]; S. sobrinus, 24 h at 37 °C): 5000 µg/mL; MIC value in individual replicate Replicate 4 (Streptococcus sobrinus [3]; S. sobrinus, 24 h at 37 °C): 5000 µg/mL; MIC value in individual replicate Replicate 5 (Streptococcus sobrinus [3]; S. sobrinus, 24 h at 37 °C): 5000 µg/mL; MIC Median value (Streptococcus sobrinus [3]; S. sobrinus, median of 5 replicates): 5000 µg/mL; MIC value in individual replicate Replicate 1 (Streptococcus mutans [4]; S. mutans, 24 h at 37 °C): 600 µg/mL; MIC value in individual replicate Replicate 2 (Streptococcus mutans [4]; S. mutans, 24 h at 37 °C): 600 µg/mL; MIC value in individual replicate Replicate 3 (Streptococcus mutans [4]; S. mutans, 24 h at 37 °C): 300 µg/mL; MIC value in individual replicate Replicate 4 (Streptococcus mutans [4]; S. mutans, 24 h at 37 °C): 300 µg/mL; MIC value in individual replicate Replicate 5 (Streptococcus mutans [4]; S. mutans, 24 h at 37 °C): 300 µg/mL; MIC Median value (Streptococcus mutans [4]; S. mutans, median of 5 replicates): 300 µg/mL |
